# Results published in patent publication US20110020843A1, “LABEL-FREE METHODS RELATED TO PHOSPHODIESTERASES” (priority 2009, published 2011).
# Read-outs that look alike come from different tables or passages of the source.
# Tests used:
# [1] = biological target: endogenous Gs-coupled β2-adrenergic receptor (Homo sapiens, UniProt P07550); conditions: A431 cells; Epic DMR vs whole cell cAMP kit (FIG. 3)
# Procedure: For biosensor cellular assays, compound solutions were made by diluting the stored concentrated solutions with the HBSS (1× Hanks balanced salt solution, plus 20 mM Hepes, pH 7.1), and transferred into a 384 well polypropylene compound storage plate to prepare a compound source plate. Two compound source plates were made separately when a two-step assay was performed. In parallel, the cells were washed twice with the HBSS and maintained in 30 μl of the HBSS to prepare a cell assay plate. Both the cell assay plate and the compound source plate(s) were then incubated in the hotel of the reader system. After incubation the baseline wavelengths of all biosensors in the cell assay microplate were recorded and normalized to zero. Afterwards, a 2 to 10 min continuous recording was carried out to establish a baseline, and to ensure that the cells reached a steady state. Cellular responses were then triggered by transferring 10 μl of the compound solutions into the cell assay plate using the on-board liquid handler.
# [2] = tested on: intracellular cAMP level of A431 cells; test: Chemiluminescence quantification of cyclic AMP in whole cell lysate; type: cell-based, human
# Procedure: A431 cells were seeded in 96 well TCT microplate at 80000 cells/well, cultured for 20 hrs and starved for an extra 20 hrs. Cells were washed two time with HBSS and incubated with 100 μl of HBSS, Leibovitz's L-15 medium (Gibco) or 1 μM of Acetozamine (Sigma) in HBSS for 2 hrs in the Epic instrument. […] The medium or buffer was removed and cells were lysed in 100 μm al of lysis buffer (from cAMP HTS immunoassay kit, Millipore) containing 1 mM IBMX. 50 μl of cell extracts as well as cAMP standard were then analyzed using the same procedure described by the vendor.
# A431 Cells were cultured in a serum rich medium on Corning tissue culture treated 96 well microplate until it reached a high confluency (˜95%). After washing, the cells were continuously cultured in a serum free medium for overnight. At this point, the cells were at ˜100% confluency. After washing with corresponding solution, the cells are incubated at the same low CO2 environment (˜2% CO2) for 2 hr. The cells were then lysed with a cell lysis buffer containing 100 micromolar IBMX to block the PDE activity, followed by cAMP measurements, using the protocol as recommended by the supplier.
# [3] = tested on: quiescent A431 cells (endogenous PDE4 isoforms); test: Label-free Epic RWG biosensor DMR assay of PDE inhibitors in synchronized quiescent A431 cells; type: cell-based, human; conditions: for DMR signal upon stimulation: synchronized in HBSS buffer for a shorter time (<90 min), data not shown; for DMR signal induced by PDE inhibitor: each at 12.5 micromolar, 22k cells per well, synchronized in HBSS under low CO2 for 2 hrs, vs vehicle
# Procedure: Cells were typically grown using ˜1 to 2×10^4 cells per well at passage 3 to 15 suspended in 50 μl of the corresponding culture medium in the biosensor microplate, and were cultured at 37° C. under air/5% CO2 for ˜1 day. Except for A431 which was subject to ˜20 hr starvation through continuously culture in the serum-free DMEM, the other cell types were directly assayed without starvation.
# Epic® wavelength interrogation system (Corning Inc., Corning, N.Y.) was used for whole cell sensing. This system consists of a temperature-control unit, an optical detection unit, and an on-board liquid handling unit with robotics. The detection unit is centered on integrated fiber optics, and enables kinetic measures of cellular responses with a time interval of ˜15 sec. The compound solutions were introduced by using the on-board liquid handling unit (i.e., pippetting).
# The RWG biosensor is capable of detecting minute changes in local index of refraction near the sensor surface. Since the local index of refraction within a cell is a function of density and its distribution of biomass (e.g., proteins, molecular complexes), the biosensor exploits its evanescent wave to non-invasively detect ligand-induced dynamic mass redistribution in native cells. The evanescent wave extends into the cells and exponentially decays over distance, leading to a characteristic sensing volume of ˜150 nm, implying that any optical response mediated through the receptor activation only represents an average over the portion of the cell that the evanescent wave is sampling. The aggregation of many cellular events downstream the receptor activation determines the kinetics and amplitudes of a ligand-induced DMR.
# All studies were carried out at a controlled temperature (28° C.). At least two independent sets of experiments, each with at least three replicates, were performed.
# We further examined the DMR signal, if any, of the quiescent A431 cells upon treatment with PDE inhibitors. […] The quiescent A431 cells obtained under the same culture condition were used. Here the initial seeding numbers of cells were relatively low (˜20K cells per well in a 384 well Epic biosensor microplate tissue culture treated). […] After washing with the serum free medium, the cells were continuously cultured in the serum free medium for another 24 hrs to reach a quiescent state. Here the quiescent state was largely achieved through serum withdrawl. […] The cell membrane bound carbonic anahydrase is a known sensor for CO2 level.
# In FIG. 4 the quiescent cells were achieved primarily through serum withdrawl. We were interested in the quiescent cells achieved through both contact inhibition and serum withdrawl. To do so, much higher initial seeding numbers of cells (>=25k cells per well for the 384 well Epic biosensor microplate) were used. […] Here both quiescent cells were subject to the same synchronization condition (2 hr incubation in the HBSS assay solution in a low CO2 environment).
# Here the quiescent A431 cells were used using 22k cells per well in 384 well Epic biosensor microplates, followed by one day (˜24 hrs) culture in serum medium and 1 day (˜24 hrs) serum free medium, and sequential synchronization in the HBSS buffer solution under a relatively low CO2 environment for 2 hrs. […] For comparison, the DMR signal of cells stimulated with the buffer only (“Vehicle”) were included.
# Chain of endogenous Gs-coupled β2-adrenergic receptor (P07550 whole entry): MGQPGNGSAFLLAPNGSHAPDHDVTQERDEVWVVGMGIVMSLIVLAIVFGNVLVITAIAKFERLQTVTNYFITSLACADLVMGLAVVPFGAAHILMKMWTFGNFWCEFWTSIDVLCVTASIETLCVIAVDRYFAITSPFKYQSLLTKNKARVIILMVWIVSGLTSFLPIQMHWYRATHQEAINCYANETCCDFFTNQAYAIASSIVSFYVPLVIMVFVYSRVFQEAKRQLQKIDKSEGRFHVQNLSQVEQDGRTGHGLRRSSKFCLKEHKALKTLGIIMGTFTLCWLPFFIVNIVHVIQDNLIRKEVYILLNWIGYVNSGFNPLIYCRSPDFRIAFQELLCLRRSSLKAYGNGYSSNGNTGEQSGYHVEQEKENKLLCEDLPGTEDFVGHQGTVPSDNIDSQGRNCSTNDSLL
Compound,DMR signal induced by PDE inhibitor [3],further results
CNC[C@H](O)c1ccc(O)c(O)c1 [epinephrine],,potency to activate DMR signal relative to potency to cause whole cell cAMP accumulation [1]: much higher potency
CC(C)Cn1c(=O)n(C)c(=O)c2[nH]cnc21 [IBMX],,"impact on intracellular cAMP levels (whole cell lysate) ([2]; 10 nanomolar to 100 micromolar, all synchronization conditions, data not shown): little impact; EC50 ([3]; quiescent A431 (~20K cells per well, serum withdrawl), the three synchronized conditions wherein IBMX led to a detectable DMR signal, read-out: potency of IBMX-induced DMR signal (EC50)): ~10 µM; IBMX-induced DMR signal ([3]; quiescent A431 synchronized in CO2 independent medium L-15, highest doses examined (FIG. 4c)): little DMR signals; IBMX-induced DMR signal ([3]; synchronized in 1×HBSS 20 mM Hepes pH 7.1 with or without acetamolamide, low CO2, 2 hr (FIG. 4A, 4B)): dose-dependent and robust DMR signal; IBMX-induced DMR signal ([3]; synchronized in CO2 independent L-15 medium containing acetamolamide at 1 micromolar (FIG. 4D)): robust DMR signal; DMR signal upon stimulation [3]: inconsistent DMR signal"
Cc1[nH]c(=O)c(C#N)cc1-c1ccncc1 [milrinone],did not result in any detectable DMR signals,
CCCCOc1cc(CC2CNC(=O)N2)ccc1OC (centres unmarked) [Ro-20-1724],Gs-like DMR signal,
CCCOc1ccccc1-c1nc2nn[nH]c2c(=O)[nH]1 [zaprinast],did not result in any detectable DMR signals,
O=C1CN2Cc3c(ccc(Cl)c3Cl)N=C2N1 [anagrelide],did not result in any detectable DMR signals,
CC(=O)Nc1nnc(S(N)(=O)=O)s1 [acetazolamide],,"basal cAMP level ([2]; quiescent A431 synchronized 2 hr, low CO2, in L-15 medium containing 1 micromolar acetazolamide): 0.74±0.1 pmole/160K cells"
COCc1nc2c([nH]1)c(=O)n(C)c(=O)n2CC(C)C [MMPX],did not result in any detectable DMR signals,
Clc1cccc(Nc2nnc(-c3ccccc3)c3ccccc23)c1 [MY-5445],did not result in any detectable DMR signals,
CCc1ccc2c(-c3cccc(Cl)c3)nc(=O)n(CC)c2n1 [YM-976],Gs-like DMR signal,
COc1ccc([C@@H]2CNC(=O)C2)cc1OC1CCCC1 [R-rolipram],Gs-like DMR signal,"EC50 ([3]; Homo sapiens, A-431, quiescent cells achieved through both contact inhibition and serum withdrawl (>=25k cells per well), 2 hr incubation in HBSS, low CO2, read-out: EC50 of DMR response): 0.25 µM; DMR signal upon stimulation [3]: inconsistent DMR signal"
Cc1ccc([N+](=O)[O-])cc1S(=O)(=O)N(C)C [BRL-50481],did not result in any detectable DMR signals,
CCCn1c(=O)c(C)cn2nc(N)nc12 [ICI63197],Gs-like DMR signal,
